Measurements taken from patent publication US3984411A, “Pyrimidines” (Societe Generale de Recherches et d'Applications …, priority 1975, dated 1976).
Counter-ions that a name gives are not always drawn. Like-named read-outs stand apart in the source and are kept apart here.

Columns and labels:
[1] = test system: glycemia; test: Hypoglycemiant effect in the rat, oral, 4 days treatment; type: in vivo, male rat CD (Charles RIVER); conditions: for hypoglycemiant effects (in words): oral, 4 days
Protocol: The hypoglycemiant properties have been studied on the male rat CD (Charles RIVER) of 200-250 g, of which the glycemia is controlled after 4 days of daily treatment by oral application. The serum glucose is determined by the method of W. S. Hoffman, J. Biol. Chem., 120, 51 (1937). Groups of 10 rats are used and the hypoglycemiant activity is expressed by the percentage variation of the average glycemia of the treated animals compared with that of the controls. The statistical significance of the differences observed is determined by application of the STUDENT test.

[2] = test system: mice CD 1 (Charles RIVER); test: Toxicity (LD 50) in mice by intravenous and oral application; type: in vivo; conditions: mice CD 1, oral; cumulative quantal method
Source text: (§1) The toxicities of the compounds according to the invention have been determined on mice CD 1 (Charles RIVER) by intravenous and oral applications. The LD 50, calculated by the cumulative quantal method of J. J. Reed and H. Muench, Am.

[3] = as above; type: in vivo; conditions: mouse, in vivo, cumulative quantal method
Source text: as §1

[4] = test system: cholesterolemia; test: Hypocholesterolemiant effect in the rat, oral, 4 days treatment; type: in vivo, rat CD (Charles RIVER); conditions: for hypocholesterolemiant activities (in words): oral, 4 days
Protocol: The hypocholesterolemiant effects of the products according to the invention have been studied on the rat CD (Charles RIVER) by oral application. The animals, divided into groups of 10, are treated daily by gastric probe for 4 consecutive days. Four hours after the last administration, the rats are killed and their blood is collected in order to proceed to the determination of the amount of cholesterol according to the method of J. Levine and B. Zak, Clin. Acta, 10, 381 (1964).
The activity of the substances is evaluated by calculating the percentage variation of the average amount of cholesterol of the animals treated with respect to that of the control animals. Then the statistical significance of the differences observed is determined by application of the STUDENT test.

[5] = mice CD 1, intravenous, read-out: Intense toxicities to mice (LD 50), intravenous
[6] = 50 mg/kg taken orally, all values significant at p = 0.001
[7] = mice CD 1, oral, read-out: Intense toxicities to mice (LD 50), oral
[8] = 100 mg/kg taken orally, significant at p = 0.001, except Example 18 at p = 0.05
[9] = 100 mg/kg taken orally, significant at p = 0.001
[10] = 300 mg/kg taken orally, significant at p = 0.001

Structure (SMILES)	Intense toxicities to mice (LD 50), oral [2]	LD50 [3, 5] [mg/kg]	hypocholesterolemiant activities (in words) [4]	LD50 [3, 7] [mg/kg]	Variation of the cholesterolemia in % with respect to the controls after 4 days treatment [4, 8] [%]	Percentage variation of the glycemia compared with the controls after 4 days treament [1, 10] [%]	hypoglycemiant effects (in words) [1]	further results
COc1c(OC2CCN(C)CC2)nc(N2CCOCC2)nc1OC1CCN(C)CC1 [Example 14, 2-morpholino-4,6-di[(N-methyl-4'-piperidyl)oxy]-5-methoxy-pyrimidine]	atoxic at 900	67						Percentage variation of the glycemia compared with the controls after 4 days treament ([1]; 200 mg/kg taken orally, significant at p = 0.001): -24%
Cc1c(OC2CCN(C)CC2)nc(N2CCOCC2)nc1OC1CCN(C)CC1 [Example 15, 2-moropholino-4,6-di[(N-methyl-4'-piperidyl)oxy]-5-methyl-pyrimidine]	atoxic at 900	81	remarkable hypocholesterolemiant activities					Percentage variation of the glycemia compared with the controls after 4 days treament ([1]; 50 mg/kg taken orally, significant at p = 0.05): -12%; Variation of the cholesterolemia in % with respect to the controls after 4 days treatment [4, 6]: -31%
CCc1c(OC2CCN(C)CC2)nc(N2CCOCC2)nc1OC1CCN(C)CC1 [Example 16, 2-morpholino-4,6-di[(N-methyl-4'-piperidyl)oxy]-5-ethyl-pyrimidine dihydrobromide]		54	remarkable hypocholesterolemiant activities	~525	-60			
CCCCc1c(OC2CCN(C)CC2)nc(N2CCOCC2)nc1OC1CCN(C)CC1 [Example 17, 2-morpholino-4,6-di[(N-methyl-4'-piperidyl)oxy]-5-n-butyl-pyrimidine dihydrochloride]				~225	-36			
CN1CCC(Oc2nc(N3CCOCC3)nc(OC3CCN(C)CC3)c2-c2ccc(Cl)cc2)CC1 [Example 18, 2-morpholino-4,6-di[(N-methyl-4'-piperidyl)oxy]-5-p-chlorophenyl-pyrimidine]		20		~600	-14	-35	especially large hypoglycemiant effects	Percentage variation of the glycemia compared with the controls after 4 days treament [1, 9]: -29%; Variation of the cholesterolemia in % with respect to the controls after 4 days treatment [4, 10]: -44%
CCOc1c(OC2CCN(C)CC2)nc(N2CCOCC2)nc1OC1CCN(C)CC1 [Example 19, 2-morpholino-4,6-di[(N-methyl-4'-piperidyl)oxy]-5-ethoxy-pyrimidine dihydrochloride]		70		~600		-43	especially large hypoglycemiant effects	
CN1CCC(Oc2nc(N3CCOCC3)nc(OC3CCN(C)CC3)c2Oc2ccc(Cl)cc2)CC1 [Example 20, 2-morpholino-4,6-di[(N-methyl-4'-piperidyl)oxy]-5-p-chlorophenoxy-pyrimidine]			remarkable hypocholesterolemiant activities	> 900	-47	-27	especially large hypoglycemiant effects	
CN1CCC(Oc2nc(N3CCOCC3)nc(OC3CCN(C)CC3)c2Cc2ccccc2)CC1 [Example 21, 2-morpholino-4,6-di[(N-methyl-4'-piperidyl)oxy]-5-benzyl-pyrimidine]		40		~800	-39		especially large hypoglycemiant effects	Percentage variation of the glycemia compared with the controls after 4 days treament [1, 9]: -27%
CN1CCC(Oc2nc(N3CCOCC3)nc(OC3CCN(C)CC3)c2Cl)CC1 [Example 22, 2-morpholino-4,6-di[(N-methyl-4'-piperidyl)oxy]-5-chloro-pyrimidine]	atoxic at 900		remarkable hypocholesterolemiant activities		-45			Variation of the cholesterolemia in % with respect to the controls after 4 days treatment [4, 6]: -19%
CN1CCC(Oc2cc(OC3CCN(C)CC3)nc(N3CCOCC3)n2)CC1 [Example 23, 2-morpholino-4,6-di[(N-methyl-4'-piperidyl)oxy]-pyrimidine]	atoxic at 900							Percentage variation of the glycemia compared with the controls after 4 days treament ([1]; 400 mg/kg taken orally, significant at p = 0.001): -20%
